From patent US3970648A, “2-[2-(5-Nitro-2-furyl)vinyl]-4-(anilino)quinazolines” (Diamond Shamrock Corporation, priority 1974, dated 1976)

Legend:
Format in all cases: cell-based
[1] = system: Streptococcus group E; experiment: Bactericide test, Streptococcus group E (agar streak plate)
How it was run: (§1)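 Compounds were formulated with Triton X-155/acetone emulsifier (basic formulation 320 ppm, serially diluted) and mixed 2:8 into molten nutrient-tryptic soy agar. Organisms were streaked onto the plates and incubated 48 hr at 28°C. Growth inhibition was scored visually against untreated agar as 0, 50 or 100% control.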

[2] = system: Salmonella typhimurium; experiment: Bactericide test, Salmonella typhimurium (agar streak plate); settings: Salmonella enterica, TYPHIMURIUM
Excerpt: (§2) Test formulations were examined for bactericidal and/or bacteriostatic activity against the test organisms shown in Tables A and B. These organisms were chosen as being representative of commercially important pathogens affecting animal agriculture. The antibiotic chlortetracycline was chosen as a positive control, since it has a broad spectrum of activity against a large number of organisms, and its activity can be used for comparative purposes.
(§3) Basic test formulations of the product of Examples I, II, III, and of chlortetracycline were prepared by dissolving 16 mg (0.016 g) in 2.0 ml of stock emulsifier solution (0.25% Triton X-155 in acetone by volume) and making each solution up to 50 ml with deionized water. The concentration of the test compound in the basic formulation was 320 ppm. Lower concentrations of the test compound were obtained by diluting the basic formulation with a 4% solution of the stock emulsifier in deionized water so that each dilution in the series differed only in test compound content.
(§4) Nutrient-tryptic soy agar (NTA) consisting of 2.0% Difco Bactoagar 0.8% nutrient broth (Difco), and 0.5% tryptic soy broth (Difco) was prepared and sterilized by autoclaving. A 2 ml aliquot of each test formulation was added to 8 ml of molten NTA. This mixture was then plated in a sterile polystyrene petri dish (100 × 15 mm). After the agar was set, suspensions of each of the test organisms were simultaneously streaked onto the surface of the agar. The inoculated plates were incubated for 48 hr at 28°C. The inhibition of growth of each organism was rated by visual comparison with the organism developing on non-treated agar. Growth inhibition reported as per cent control was rated in three categories as follows: 0% control, growth equivalent to that on non-treated agar; 50% control, sparse development and separated colonies; 100% control, no visible growth or development of colonies.

[3] = system: Erysipelothrix rhusiopathiae; experiment: Bactericide test, Erysipelothrix rhusiopathiae (agar streak plate)
How it was run: as §1

[4] = system: Salmonella gallinarum; experiment: Bactericide test, Salmonella gallinarum (agar streak plate); settings: Salmonella enterica, GALLINARUM
How it was run: (§5)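 Compounds in Triton X-155/acetone emulsifier (basic formulation 320 ppm, diluted serially) were mixed 2:8 into molten nutrient-tryptic soy agar, then organisms streaked on the set plates. After 48 hr at 28°C, growth was scored visually against untreated agar as 0%, 50% (sparse, separated colonies) or 100% control (no visible colonies).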

[5] = system: Streptococcus agalactiae; experiment: Bactericide test, Streptococcus agalactiae (agar streak plate)
How it was run: as §1

[6] = system: Vibrio coli; experiment: Bactericide test, Vibrio coli (agar streak plate)
How it was run: as §1

[7] = system: Bordetella bronchiseptica; experiment: Bactericide test, Bordetella bronchiseptica (agar streak plate)
How it was run: as §1

[8] = system: Staphylococcus aureus; experiment: Bactericide test, Staphylococcus aureus (agar streak plate); settings: Staphylococcus aureus
Excerpt: as §2, §3, §4
(§6) Test formulations of the product of Example IV were examined for bactericidal and/or bacteriostatic activity against the test organisms shown in Table B using the Bactericide Test described in Example V. The inhibition of organism growth with each diluted test formulation was rated visually by comparison with the organism developing on a non-treated control agar plate. Growth inhibition reported as per cent control was rated in three categories as follows: 0% control, growth equivalent to that on non-treated agar; 50% control is sparse development and separated colonies; and 100% control, development of individual colonies was not apparent.

[9] = system: Salmonella cholerasuis; experiment: Bactericide test, Salmonella cholerasuis (agar streak plate); settings: Salmonella
How it was run: as §5

[10] = system: Streptococcus faecalis; experiment: Bactericide test, Streptococcus faecalis (agar streak plate)
How it was run: as §5

[11] = system: Escherichia coli; experiment: Bactericide test, Escherichia coli (agar streak plate)
Excerpt: as §2, §3, §4, §6

[12] = 100% inhibition at lower concentrations

O=[N+]([O-])c1ccc(C=Cc2nc(Nc3cccc(O)c3)c3ccccc3n2)o1 [Example II, 2-[2-(5-nitro-2-furyl)vinyl]-4-(m-hydroxyanilino)quinazoline]
100%: inhibition at 0.125 ppm ([1]; 0.125 ppm) | inhibition at 0.25 ppm ([1]; 0.25 ppm) | inhibition at 0.5 ppm ([1]; 0.5 ppm) | inhibition at 1 ppm ([1]; 1 ppm, read-out: % Inhibition) | inhibition at 2 ppm ([1]; 2 ppm) | inhibition at 4 ppm ([1]; 4 ppm, read-out: % Inhibition) | inhibition at 8 ppm ([1]; 8 ppm) | inhibition at 16 ppm ([1]; 16 ppm, read-out: % Inhibition) | inhibition at 32 ppm ([1]; 32 ppm) | inhibition at 64 ppm ([1]; 64 ppm, read-out: % Inhibition) | inhibition at 0.125 ppm ([3]; Erysipelothrix rhusiopathiae, 0.125 ppm) | inhibition at 0.25 ppm ([3]; Erysipelothrix rhusiopathiae, 0.25 ppm) | inhibition at 0.5 ppm ([3]; Erysipelothrix rhusiopathiae, 0.5 ppm) | inhibition at 1 ppm ([3]; Erysipelothrix rhusiopathiae, 1 ppm) | inhibition at 2 ppm ([3]; Erysipelothrix rhusiopathiae, 2 ppm) | inhibition at 4 ppm ([3]; Erysipelothrix rhusiopathiae, 4 ppm) | inhibition at 8 ppm ([3]; Erysipelothrix rhusiopathiae, 8 ppm) | inhibition at 16 ppm ([3]; Erysipelothrix rhusiopathiae, 16 ppm) | inhibition at 32 ppm ([3]; Erysipelothrix rhusiopathiae, 32 ppm) | inhibition at 64 ppm ([3]; Erysipelothrix rhusiopathiae, 64 ppm) | inhibition at 0.125 ppm ([5]; Streptococcus agalactiae, 0.125 ppm) | inhibition at 0.25 ppm ([5]; Streptococcus agalactiae, 0.25 ppm) | inhibition at 0.5 ppm ([5]; Streptococcus agalactiae, 0.5 ppm) | inhibition at 1 ppm ([5]; Streptococcus agalactiae, 1 ppm, read-out: % Inhibition) | inhibition at 2 ppm ([5]; Streptococcus agalactiae, 2 ppm) | inhibition at 4 ppm ([5]; Streptococcus agalactiae, 4 ppm, read-out: % Inhibition) | inhibition at 8 ppm ([5]; Streptococcus agalactiae, 8 ppm) | inhibition at 16 ppm ([5]; Streptococcus agalactiae, 16 ppm, read-out: % Inhibition) | inhibition at 32 ppm ([5]; Streptococcus agalactiae, 32 ppm) | inhibition at 64 ppm ([5]; Streptococcus agalactiae, 64 ppm, read-out: % Inhibition) | inhibition at 0.125 ppm ([6]; Campylobacter coli, 0.125 ppm) | inhibition at 0.25 ppm ([6]; Campylobacter coli, 0.25 ppm) | inhibition at 0.5 ppm ([6]; Campylobacter coli, 0.5 ppm) | inhibition at 1 ppm ([6]; Campylobacter coli, 1 ppm) | inhibition at 2 ppm ([6]; Campylobacter coli, 2 ppm) | inhibition at 4 ppm ([6]; Campylobacter coli, 4 ppm) | inhibition at 8 ppm ([6]; Campylobacter coli, 8 ppm) | inhibition at 16 ppm ([6]; Campylobacter coli, 16 ppm) | inhibition at 32 ppm ([6]; Campylobacter coli, 32 ppm) | inhibition at 64 ppm ([6]; Campylobacter coli, 64 ppm) | inhibition at 16 ppm ([7]; Bordetella bronchiseptica, 16 ppm, read-out: % Inhibition) | inhibition at 32 ppm ([7]; Bordetella bronchiseptica, 32 ppm) | inhibition at 64 ppm ([7]; Bordetella bronchiseptica, 64 ppm, read-out: % Inhibition) | inhibition at 0.5 ppm ([10]; Enterococcus faecalis, 0.5 ppm) | inhibition at 1 ppm ([10]; Enterococcus faecalis, 1 ppm, read-out: % Inhibition) | inhibition at 2 ppm ([10]; Enterococcus faecalis, 2 ppm) | inhibition at 4 ppm ([10]; Enterococcus faecalis, 4 ppm, read-out: % Inhibition) | inhibition at 8 ppm ([10]; Enterococcus faecalis, 8 ppm) | inhibition at 16 ppm ([10]; Enterococcus faecalis, 16 ppm, read-out: % Inhibition) | inhibition at 32 ppm ([10]; Enterococcus faecalis, 32 ppm) | inhibition at 64 ppm ([10]; Enterococcus faecalis, 64 ppm, read-out: % Inhibition)
0%: inhibition at 0.125 ppm ([2]; 0.125 ppm) | inhibition at 0.25 ppm ([2]; 0.25 ppm) | inhibition at 0.5 ppm ([2]; 0.5 ppm) | inhibition at 1 ppm ([2]; 1 ppm, read-out: % Inhibition) | inhibition at 2 ppm ([2]; 2 ppm) | inhibition at 4 ppm ([2]; 4 ppm, read-out: % Inhibition) | inhibition at 8 ppm ([2]; 8 ppm) | inhibition at 16 ppm ([2]; 16 ppm, read-out: % Inhibition) | inhibition at 32 ppm ([2]; 32 ppm) | inhibition at 64 ppm ([2]; 64 ppm, read-out: % Inhibition) | inhibition at 0.125 ppm ([4]; 0.125 ppm) | inhibition at 0.25 ppm ([4]; 0.25 ppm) | inhibition at 0.5 ppm ([4]; 0.5 ppm) | inhibition at 1 ppm ([4]; 1 ppm) | inhibition at 2 ppm ([4]; 2 ppm) | inhibition at 4 ppm ([4]; 4 ppm) | inhibition at 8 ppm ([4]; 8 ppm) | inhibition at 16 ppm ([4]; 16 ppm) | inhibition at 32 ppm ([4]; 32 ppm) | inhibition at 64 ppm ([4]; 64 ppm) | inhibition at 0.125 ppm ([7]; Bordetella bronchiseptica, 0.125 ppm) | inhibition at 0.25 ppm ([7]; Bordetella bronchiseptica, 0.25 ppm) | inhibition at 0.5 ppm ([7]; Bordetella bronchiseptica, 0.5 ppm) | inhibition at 1 ppm ([7]; Bordetella bronchiseptica, 1 ppm, read-out: % Inhibition) | inhibition at 2 ppm ([7]; Bordetella bronchiseptica, 2 ppm) | inhibition at 4 ppm ([7]; Bordetella bronchiseptica, 4 ppm, read-out: % Inhibition) | inhibition at 8 ppm ([7]; Bordetella bronchiseptica, 8 ppm) | inhibition at 0.125 ppm ([8]; 0.125 ppm) | inhibition at 0.25 ppm ([8]; 0.25 ppm) | inhibition at 0.5 ppm ([8]; 0.5 ppm) | inhibition at 1 ppm ([8]; 1 ppm, read-out: % Inhibition) | inhibition at 2 ppm ([8]; 2 ppm) | inhibition at 4 ppm ([8]; 4 ppm, read-out: % Inhibition) | inhibition at 8 ppm ([8]; 8 ppm) | inhibition at 16 ppm ([8]; 16 ppm, read-out: % Inhibition) | inhibition at 32 ppm ([8]; 32 ppm) | inhibition at 64 ppm ([8]; 64 ppm, read-out: % Inhibition) | inhibition at 0.125 ppm ([9]; 0.125 ppm) | inhibition at 0.25 ppm ([9]; 0.25 ppm) | inhibition at 0.5 ppm ([9]; 0.5 ppm) | inhibition at 1 ppm ([9]; 1 ppm, read-out: % Inhibition) | inhibition at 2 ppm ([9]; 2 ppm) | inhibition at 4 ppm ([9]; 4 ppm, read-out: % Inhibition) | inhibition at 8 ppm ([9]; 8 ppm) | inhibition at 16 ppm ([9]; 16 ppm, read-out: % Inhibition) | inhibition at 32 ppm ([9]; 32 ppm) | inhibition at 64 ppm ([9]; 64 ppm, read-out: % Inhibition) | inhibition at 0.125 ppm ([10]; Enterococcus faecalis, 0.125 ppm) | inhibition at 0.125 ppm ([11]; 0.125 ppm) | inhibition at 0.25 ppm ([11]; 0.25 ppm) | inhibition at 0.5 ppm ([11]; 0.5 ppm) | inhibition at 1 ppm ([11]; 1 ppm, read-out: % Inhibition) | inhibition at 2 ppm ([11]; 2 ppm) | inhibition at 4 ppm ([11]; 4 ppm, read-out: % Inhibition) | inhibition at 8 ppm ([11]; 8 ppm) | inhibition at 16 ppm ([11]; 16 ppm, read-out: % Inhibition) | inhibition at 32 ppm ([11]; 32 ppm) | inhibition at 64 ppm ([11]; 64 ppm, read-out: % Inhibition)
50%: inhibition at 0.25 ppm ([10]; Enterococcus faecalis, 0.25 ppm)
considerably more effective: effectiveness compared with chlortetracycline (in words) [1, 12] | effectiveness compared with chlortetracycline (in words) [3, 12] | effectiveness compared with chlortetracycline (in words) [5, 12] | effectiveness compared with chlortetracycline (in words) [6, 12] | effectiveness compared with chlortetracycline (in words) [7, 12] | effectiveness compared with chlortetracycline (in words) [10, 12]
